Experimental data taken from patent publication US20140200135A1, “Carbamoylmethoxy- and carbamoylmethylthio- and carbamoylmethylamino benzamides for combating invertebrate pests” (BASF SE, priority 2011, published 2014).

Columns and labels:
Type in all cases: in vivo
[1] = tested on: Boll weevil (Anthonomus grandis); assay: Boll weevil microtiter diet test, egg and larval mortality; conditions: 120 h, 5 days, insect diet, read-out: mortality in comparison with untreated controls
Description: For evaluating control of boll weevil (Anthonomus grandis) the test unit consisted of 24-well-microtiter plates containing an insect diet and 20-30 A. grandis eggs.
(§1) The compounds were formulated using a solution containing 75% v/v water and 25% v/v DMSO. Different concentrations of formulated compounds were sprayed onto the insect diet at 20 μl, using a custom built micro atomizer, at two replications.
After application, microtiter plates were incubated at about 23±1° C. and about 50±5% relative humidity for 5 days. Egg and larval mortality was then visually assessed.

[2] = tested on: Vetch aphid (Megoura viciae); assay: Vetch aphid broad bean leaf disk test, mortality; conditions: foliar, 120 h, 5 days, adult aphids on broad bean leaf disks, read-out: mortality in comparison with untreated controls
Description: For evaluating control of vetch aphid (Megoura viciae) through contact or systemic means the test unit consisted of 24-well-microtiter plates containing broad bean leaf disks.
The compounds were formulated using a solution containing 75% v/v water and 25% v/v DMSO. Different concentrations of formulated compounds were sprayed onto the leaf disks at 2.5 μl, using a custom built micro atomizer, at two replications.
After application, the leaf disks were air-dried and 5-8 adult aphids placed on the leaf disks inside the microtiter plate wells. The aphids were then allowed to suck on the treated leaf disks and incubated at about 23±1° C. and about 50±5% relative humidity for 5 days. Aphid mortality and fecundity was then visually assessed.

[3] = tested on: Diamond Backmoth (Plutella xylostella); assay: Diamond backmoth leaf-dip test, mortality; conditions: 72 hours after treatment, 3rd instar larvae on dipped cabbage leaves, read-out: mortality in comparison with untreated controls
Description: The active compound was dissolved at the desired concentration in a mixture of 1:1 (vol:vol) distilled water:aceteone. Surfactant (Alkamuls® EL 620) was added at a rate of 0.1% (vol/vol). The test solution was prepared at the day of use.
Leaves of cabbage were dipped in test solution and air-dried. Treated leaves were placed in petri dishes lined with moist filter paper and inoculated with ten 3rd instar larvae. Mortality was recorded 72 hours after treatment. Feeding damages were also recorded using a scale of 0-100%.

[4] = tested on: Mediterranean Fruitfly (Ceratitis capitata); assay: Mediterranean fruitfly microtiter diet test, egg and larval mortality; conditions: 120 h, 5 days, insect diet, read-out: mortality in comparison with untreated controls
Description: For evaluating control of Mediterranean fruitfly (Ceratitis capitata) the test unit consisted of microtiter plates containing an insect diet and 50-80 C. capitata eggs.
The compounds were formulated using a solution containing 75% v/v water and 25% v/v DMSO. Different concentrations of formulated compounds were sprayed onto the insect diet at 5 μl, using a custom built micro atomizer, at two replications.
After application, microtiter plates were incubated at about 28±1° C. and about 80±5% relative humidity for 5 days. Egg and larval mortality was then visually assessed.

[5] = tested on: Southern Armyworm (Spodoptera eridiana); 2nd Instar Larvae; assay: Southern armyworm foliar spray test on lima bean, mortality; conditions: for mortality at 1 ppm: Concentration 1 ppm; for mortality at 1 ppm / mortality at 10 ppm / mortality at 30 ppm: southern armyworm, Table D; for mortality at 10 ppm: Concentration 10 ppm; for mortality at 30 ppm: Concentration 30 ppm; for mortality at 500 ppm: Spodoptera, 96 h, 4 days after treatment, lima bean foliage spray, read-out: mortality in comparison with untreated controls
Description: (§2) The active compounds were formulated in cyclohexanone as a 10,000 ppm solution supplied in tubes. The tubes were inserted into an automated electrostatic sprayer equipped with an atomizing nozzle and they served as stock solutions for which lower dilutions were made in 50% acetone:50% water (v/v). A nonionic surfactant (Kinetic®) was included in the solution at a volume of 0.01% (v/v).
Lima bean plants (variety Sieva) were grown 2 plants to a pot and selected for treatment at the 1st true leaf stage. Test solutions were sprayed onto the foliage by an automated electrostatic plant sprayer equipped with an atomizing spray nozzle. The plants were dried in the sprayer fume hood and then removed from the sprayer. Each pot was placed into perforated plastic bags with a zip closure. About 10 to 11 armyworm larvae were placed into the bag and the bags zipped closed. Test plants were maintained in a growth room at about 25° C. and about 20-40% relative humidity for 4 days, avoiding direct exposure to fluorescent light (24 hour photoperiod) to prevent trapping of heat inside the bags. Mortality and reduced feeding were assessed 4 days after treatment, compared to untreated control plants.

[6] = tested on: TOBACCO budworm (Heliothis virescens); assay: Tobacco budworm microtiter diet test, egg and larval mortality; conditions: 120 h, 5 days, insect diet, read-out: mortality in comparison with untreated controls
Description: as §1, with “For evaluating control of tobacco budworm (Heliothis virescens) the test unit consisted of 96-well-microtiter plates containing an insect diet and 15-25 H. virescens eggs. The” for “The”, “10” for “20”
After application, microtiter plates were incubated at about 28±1° C./and about 80±5% relative humidity for 5 days. Egg and larval mortality was then visually assessed.

[7] = tested on: Green Peach Aphid (Myzus persicae); assay: Green peach aphid spray test on bell pepper plants, mortality; conditions: 120 h, after 5 days, sprayed bell pepper plants, read-out: mortality in comparison with untreated controls
Source text: as §2
Bell pepper plants at the first true-leaf stage were infested prior to treatment by placing heavily infested leaves from the main colony on top of the treatment plants. Aphids were allowed to transfer overnight to accomplish an infestation of 30-50 aphids per plant and the host leaves were removed. The infested plants were then sprayed by an automated electrostatic plant sprayer equipped with an atomizing spray nozzle. The plants were dried in the sprayer fume hood, removed, and then maintained in a growth room under fluorescent lighting in a 24-hr photoperiod at about 25° C. and about 20-40% relative humidity. Aphid mortality on the treated plants, relative to mortality on untreated control plants, was determined after 5 days.

[8] = tested on: Colorado Potato Beetle (Leptinotarsa decemlineata) (2nd instar larvae); assay: Colorado potato beetle foliar spray test on eggplant, mortality; conditions: 96 h, 4 days after treatment, Table E; for mortality at 1 ppm: Concentration 1 ppm; for mortality at 10 ppm: Concentration 10 ppm; for mortality at 30 ppm: Concentration 30 ppm
Description: as §2
Eggplants were grown 2 plants to a pot and were selected for treatment at the 1st true leaf stage. Test solutions were sprayed onto the foliage by an automated electrostatic plant sprayer equipped with an atomizing spray nozzle. The plants were dried in the sprayer fume hood and then removed from the sprayer. The treated foliage was then cut and removed from the pot and placed in a Petri dish lined with moistened filter paper. Five beetle larvae were introduced into each Petri dish and the dish was covered by a Petri dish lid. Petri dishes were maintained in a growth room at about 25° C. and about 20-40% relative humidity for 4 days, avoiding direct exposure to fluorescent light (24 hour photoperiod) to prevent trapping of heat inside the dishes. Mortality and reduced feeding were assessed 4 days after treatment, compared to untreated control plants.

[9] = tested on: Cowpea Aphid (Aphis Craccivora); assay: Cowpea aphid spray test on potted cowpea plants, mortality; conditions: after 72 hours, sprayed cowpea plants, read-out: mortality in comparison with untreated controls
Description: The active compound was dissolved at the desired concentration in a mixture of 1:1 (vol:vol) distilled water:acetone. Surfactant (Alkamuls® EL 620) is added at a rate of 0.1% (vol/vol). The test solution was prepared at the day of use.
Potted cowpea plants were colonized with approximately 50-100 aphids of various stages by manually transferring a leaf tissue cut from infested plant 24 hours before application. Plants were sprayed after the pest population has been recorded. Treated plants were maintained on light carts at about 28° C. Percent mortality was assessed after 72 hours.

[10] = tested on: Orchid Thrips (dichromothrips corbetti); assay: Orchid thrips floral-immersion test, mortality; conditions: 72 hours after treatment, adult thrips, read-out: mortality in comparison with untreated controls
Description: Dichromothrips corbetti adults used for bioassay were obtained from a colony maintained continuously under laboratory conditions. For testing purposes, the test compound was diluted in a 1:1 mixture of acetone:water (vol:vol), plus 0.01% vol/vol Alkamuls® EL 620 surfactant.
Thrips potency of each compound was evaluated by using a floral-immersion technique. Plastic petri dishes were used as test arenas. All petals of individual, intact or chid flowers were dipped into treatment solution and allowed to dry. Treated flowers were placed into individual petri dishes along with about 20 adult thrips. The petri dishes were then covered with lids. All test arenas were held under continuous light and a temperature of about 28° C. for duration of the assay. After 3 days, the numbers of live thrips were counted on each flower, and along inner walls of each petri dish. The percent mortality was recorded 72 hours after treatment.

Row | Compound | mortality at 2500 ppm [1] [%] | mortality at 2500 ppm [2] [%] | mortality at 500 ppm [3] [%] | mortality at 2500 ppm [4] [%] | mortality at 1 ppm [5] [%] | mortality at 10 ppm [5] [%] | mortality at 30 ppm [5] [%] | mortality at 500 ppm [5] [%] | mortality at 2500 ppm [6] [%] | mortality at 2500 ppm [7] [%] | mortality at 1 ppm [8] [%] | mortality at 10 ppm [8] [%] | mortality at 30 ppm [8] [%] | mortality at 500 ppm [9] [%] | mortality at 500 ppm [10] [%]
1 | CNC(=O)CONC(=O)c1cc(Cl)cc(C)c1NC(=O)c1cc(Br)nn1-c1ncccc1Cl [Compound 1-3, 5-bromo-2-(3-chloro-pyridin-2-yl)-2H-pyrazole-3-carboxylic acid (4-chloro-2-methyl-6-methylcarbamoylmethoxycarbamoyl-phenyl)-amide] | > 75 | > 75 | 100 | > 75 | 100 | 100 | 100 | 100 | > 75 | > 75 | 100 | 100 | 100 | – | –
2 | CNC(=O)CONC(=O)c1cc(Br)cc(Br)c1NC(=O)c1cc(Br)nn1-c1ncccc1Cl [Compound 1-10, 5-bromo-2-(3-chloro-pyridin-2-yl)-2H-pyrazole-3-carboxylic acid (2,4-dibromo-6-methylcarbamoylmethoxycarbamoyl-phenyl)-amide] | > 75 | > 75 | 100 | > 75 | – | – | – | 100 | > 75 | > 75 | – | – | – | > 75 | > 75
3 | Cc1cc(Cl)cc(C(=O)NNCC(=O)NCc2ccccc2)c1NC(=O)c1cc(Br)nn1-c1ncccc1Cl [Compound 1-11, 5-bromo-2-(3-chloro-pyridin-2-yl)-2H-pyrazole-3-carboxylic acid {2-[N′-(benzylcarbamoyl-methyl)-hydrazinocarbonyl]-4-chloro-6-methyl-phenyl}-amide] | > 75 | > 75 | 100 | > 75 | – | – | – | 100 | > 75 | > 75 | – | – | – | – | –
4 | CONC(=O)c1cc(Cl)cc(C)c1NC(=O)c1cc(Br)nn1-c1ncccc1Cl [Compound X-1, 5-bromo-2-(3-chloro-pyridin-2-yl)-2H-pyrazole 3-carboxylic acid (4-chloro-2-methoxycarbamoyl-6-methyl-phenyl)amide, reference compound] | – | – | – | – | 0 | 100 | 100 | – | – | – | 0 | 100 | 100 | – | –
